The record followed here is patent US20240132431A1, “METHOD FOR ALKYLATING ACIDIC FUNCTIONAL GROUP” (Chugai Seiyaku Kabushiki Kaisha, priority 2021, published 2024).

In the test the target is T1, Bcl-2 protein (Recombinant Human Bcl-2 Protein) (Homo sapiens, UniProt P10415).
T1 construct: purchased Novus NBP2-34889
As to the kind of experiment: Binding evaluation of mixture library compounds to Bcl-2 using AS-MS (affinity selection mass spectrometry). Conditions: for ASMS ratio (%) n = 1: replicate n = 1; for ASMS ratio (%) n = 1 / ASMS ratio (%) n = 2: ASMS Ratio(%)=(A−C)/B×100; for ASMS ratio (%) n = 2: replicate n = 2. Summed up:
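Bcl-2 binding is scored from LC/MS signal retained with protein through gel-filtration spin columns, normalised to unfiltered and protein-free controls. Incubation: 20 μM protein, […] per compound, 1 h, 23° C.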

Where [1] appears, read: AS-MS on the mixture of 1200 library compounds.
Where [2] appears, read: AS-MS, mixture of 1200 compounds, Bcl-2.

Structures are written as SMILES.

T1 sequence (P10415 whole entry): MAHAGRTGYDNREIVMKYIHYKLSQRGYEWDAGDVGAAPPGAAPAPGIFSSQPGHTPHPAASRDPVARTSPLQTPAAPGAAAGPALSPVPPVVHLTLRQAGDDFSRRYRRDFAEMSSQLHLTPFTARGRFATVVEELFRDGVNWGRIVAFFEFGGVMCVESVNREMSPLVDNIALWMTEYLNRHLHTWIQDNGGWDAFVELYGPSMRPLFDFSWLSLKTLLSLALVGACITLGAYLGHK

On to `CCOc1cccc(-c2ccccc2CN2CCN(c3ccc(C(=O)NS(=O)(=O)C(C)(C)C)cc3)CC2)c1` [B2L045-01, N-tert-Butylsulfonyl-4-[4-[[2-(3-ethoxyphenyl)phenyl]methyl]piperazin-1-yl]benzamide], for which the “ASMS ratio (%)” value (n = 1) was 0.0% and the “ASMS ratio (%)” value (n = 2) was determined as 0.0%.
For the molecule `CCOc1cncc(-c2ccc(C(=O)N3CCN(c4ccc(C(=O)NS(=O)(=O)CC56CC7CC(CC(C7)C5)C6)cc4)CC3)c3ccccc23)c1` [B2A036-01, N-(1-Adamantylmethylsulfonyl)-4-[4-[4-(5-ethoxypyridin-3-yl)naphthalene-1-carbonyl]piperazin-1-yl]benzamide], where the note is “AS-MS, mixture library, Bcl-2”, the “ASMS ratio (%) n = 1” value is recorded as 2.0% and the “ASMS ratio (%) n = 2” value was −0.4%.
For `CCOc1cncc(-c2cc(CN3CCN(c4ccc(C(=O)Nc5ccc(OC)cc5)cc4)CC3)cc(OC(C)C)c2)c1` [B1O058-01], under setting [1], the “ASMS ratio (%) n = 1” value is recorded as −3.5% and the “ASMS ratio (%) n = 2” value is recorded as 4.4%.
Take `CCOc1cncc(-c2cc(C(=O)N3CCN(c4ccc(C(=O)NS(=O)(=O)c5ccc(NCCSc6ccccc6)c([N+](=O)[O-])c5)nn4)CC3)cc(C(C)(C)C)c2)c1` [B2Q016-01, 6-[4-[3-tert-Butyl-5-(5-ethoxypyridin-3-yl)benzoyl]piperazin-1-yl]-N-[3-nitro-4-(2-phenylsulfanylethylamino)phenyl]sulfonylpyridazine-3-carboxamide]: where the note is “AS-MS, mixture library, Bcl-2”, the “ASMS ratio (%) n = 1” value is 10.6% and the “ASMS ratio (%) n = 2” value is listed as 6.5%.
Take `CCOc1cccc(C#Cc2cncc(C(=O)N3CCN(c4ccc(C(=O)NS(=O)(=O)C(C)(C)C)cc4)CC3)c2)c1` [B2L031-01, N-tert-Butylsulfonyl-4-[4-[5-[2-(3-ethoxyphenyl)ethynyl]pyridine-3-carbonyl]piperazin-1-yl]benzamide]: the “ASMS ratio (%)” value runs as follows: (n = 1) 0.0%; (n = 2) 0.0%.
Regarding `CCOc1cccc(-c2ccc(CN3CCN(c4ccc(C(=O)NS(C)(=O)=O)cc4)CC3)cc2C)c1` [B2I047-01], the “ASMS ratio (%)” value (n = 1) was 0.8% and the “ASMS ratio (%)” value (n = 2) was 1.4%.
As for `CCOc1cncc(-c2ccc(CN3CCN(c4ccc(C(=O)N(C)CC56CC7CC(CC(C7)C5)C6)nn4)CC3)cc2C)c1` [B3A074-01, N-(1-Adamantylmethyl)-6-[4-[[4-(5-ethoxypyridin-3-yl)-3-methylphenyl]methyl]piperazin-1-yl]-N-methylpyridazine-3-carboxamide], under setting [1], the “ASMS ratio (%) n = 1” value came out at 10.7% and the “ASMS ratio (%) n = 2” value is reported as −17.2%.
Taken in the same sequence, the figures for `CCOc1cccc(-c2cc(C(=O)N3CCN(c4ccc(C(=O)N(CC)CC)cc4)CC3)cc(C(F)(F)F)c2)c1` [B4J039-01, 4-[4-[3-(3-Ethoxyphenyl)-5-(trifluoromethyl)benzoyl]piperazin-1-yl]-N,N-diethylbenzamide] were 2.2% and 0.1%.
Consider `CCOc1cccc(-c2ccc(CN3CCN(c4ccc(C(=O)NS(=O)(=O)CC56CC7CC(CC(C7)C5)C6)cc4)CC3)c3ccccc23)c1` [B2A065-01, N-(1-Adamantylmethylsulfonyl)-4-[4-[[4-(3-ethoxyphenyl)naphthalen-1-yl]methyl]piperazin-1-yl]benzamide], for which, for the setting “AS-MS, mixture library, Bcl-2”, the “ASMS ratio (%) n = 1” value is reported as 10.5% and the “ASMS ratio (%) n = 2” value is −2.9%.
For the molecule `CCOc1cncc(C#Cc2cc(C(=O)N3CCN(c4ccc(C(=O)NCC(F)(F)F)nn4)CC3)cc(C(F)(F)F)c2)c1` [B1K020-01, 6-[4-[3-[2-(5-Ethoxypyridin-3-yl)ethynyl]-5-(trifluoromethyl)benzoyl]piperazin-1-yl]-N-(2,2,2-trifluoroethyl)pyridazine-3-carboxamide], under setting [2], the “ASMS ratio (%) n = 1” value turned out to be 2.9% and the “ASMS ratio (%) n = 2” value is listed as −3.8%.
As to `CCOc1cncc(-c2csc(C(=O)N3CCN(c4ccc(C(=O)NS(=O)(=O)c5ccc(NCCSc6ccccc6)c(C(F)(F)F)c5)cc4)CC3)c2)c1` [B2R024-01, 4-[4-[4-(5-Ethoxypyridin-3-yl)thiophene-2-carbonyl]piperazin-1-yl]-N-[4-(2-phenylsulfanylethylamino)-3-(trifluoromethyl)phenyl]sulfonylbenzamide], the “ASMS ratio (%)” value runs as follows: (n = 1) 0.0%; (n = 2) −1.2%.
Regarding `CCOc1cccc(C#Cc2ccccc2C(=O)N2CCN(c3ccc(C(=O)Nc4ccc(OC)cc4)nn3)CC2)c1` [B1O007-01, 6-[4-[2-[2-(3-Ethoxyphenyl)ethynyl]benzoyl]piperazin-1-yl]-N-(4-methoxyphenyl)pyridazine-3-carboxamide], under setting [1], the “ASMS ratio (%) n = 1” value was 4.5% and the “ASMS ratio (%) n = 2” value stood at 0.9%.
Taken in the same sequence, the figures for `CCOc1cncc(C#Cc2cc(C(=O)N3CCN(c4ccc(C(=O)N(CC)CC)cc4)CC3)cc(C(F)(F)F)c2)c1` [B4J042-01, 4-[4-[3-[2-(5-Ethoxypyridin-3-yl)ethynyl]-5-(trifluoromethyl)benzoyl]piperazin-1-yl]-N,N-diethylbenzamide] were 1.0% and 0.0%.
Consider `CCOc1cccc(-c2csc(CN3CCN(c4ccc(C(=O)NS(=O)(=O)CC56CC7CC(CC(C7)C5)C6)cc4)CC3)c2)c1` [B2A067-01, N-(1-Adamantylmethylsulfonyl)-4-[4-[[4-(3-ethoxyphenyl)thiophen-2-yl]methyl]piperazin-1-yl]benzamide], for which, where the note is “AS-MS, mixture library, Bcl-2”, the “ASMS ratio (%) n = 1” value was found to be 0.0% and the “ASMS ratio (%) n = 2” value stood at 0.0%.
Take `CCOc1cncc(C#Cc2ccccc2CN2CCN(c3ccc(C(=O)NS(=O)(=O)C(C)(C)C)nn3)CC2)c1` [B2L096-01, N-tert-Butylsulfonyl-6-[4-[[2-[2-(5-ethoxypyridin-3-yl)ethynyl]phenyl]methyl]piperazin-1-yl]pyridazine-3-carboxamide]: the “ASMS ratio (%)” value was 0.0% (n = 1) and 0.0% (n = 2).
Regarding `CCOc1cncc(-c2cc(OC)c(CN3CCN(c4ccc(C(=O)NS(=O)(=O)c5ccc(NCCSc6ccccc6)c([N+](=O)[O-])c5)nn4)CC3)c(OC)c2)c1` [B2Q086-01, 6-[4-[[4-(5-Ethoxypyridin-3-yl)-2,6-dimethoxyphenyl]methyl]piperazin-1-yl]-N-[3-nitro-4-(2-phenylsulfanylethylamino)phenyl]sulfonylpyridazine-3-carboxamide], for the setting “AS-MS, mixture library, Bcl-2”, the “ASMS ratio (%) n = 1” value is −39.4% and the “ASMS ratio (%) n = 2” value is on record as 0.0%.
As for `CCOc1cccc(-c2cc(CN3CCN(c4ccc(C(=O)NS(C)(=O)=O)cc4)CC3)cc(OC(F)(F)F)c2)c1` [B2I063-01, 4-[4-[[3-(3-Ethoxyphenyl)-5-(trifluoromethoxy)phenyl]methyl]piperazin-1-yl]-N-methylsulfonylbenzamide], the “ASMS ratio (%)” value is listed as 0.9% (n = 1) and 0.0% (n = 2).
As to `CCOc1cccc(-c2ccc(CN3CCN(c4ccc(C(=O)NS(=O)(=O)CCC(F)(F)F)nn4)CC3)c3ccccc23)c1` [B2N091-01, 6-[4-[[4-(3-Ethoxyphenyl)naphthalen-1-yl]methyl]piperazin-1-yl]-N-(3,3,3-trifluoropropylsulfonyl)pyridazine-3-carboxamide], the “ASMS ratio (%)” value is 0.0% (n = 1) and 0.0% (n = 2).
On to `CCOc1cccc(C#Cc2cncc(C(=O)N3CCN(c4ccc(C(=O)N(CC)CC)nn4)CC3)c2)c1` [B4J009-01, 6-[4-[5-[2-(3-Ethoxyphenyl)ethynyl]pyridine-3-carbonyl]piperazin-1-yl]-N,N-diethylpyridazine-3-carboxamide], for which, under setting [1], the “ASMS ratio (%) n = 1” value came out at 0.0% and the “ASMS ratio (%) n = 2” value was determined as 0.0%.
In the case of `CCOc1cncc(-c2cc(C(=O)N3CCN(c4ccc(C(=O)NCC56CC7CC(CC(C7)C5)C6)nn4)CC3)cc(C(C)(C)C)c2)c1` [B1A016-01, N-(1-Adamantylmethyl)-6-[4-[3-tert-butyl-5-(5-ethoxypyridin-3-yl)benzoyl]piperazin-1-yl]pyridazine-3-carboxamide], under setting [2], the “ASMS ratio (%) n = 1” value is listed as 12.1% and the “ASMS ratio (%) n = 2” value is −4.6%.
As for `CCOc1cccc(-c2cc(C(=O)N3CCN(c4ccc(C(=O)NS(=O)(=O)C(C)(C)C)nn4)CC3)cc(C(F)(F)F)c2)c1` [B2L017-01, N-tert-Butylsulfonyl-6-[4-[3-(3-ethoxyphenyl)-5-(trifluoromethyl)benzoyl]piperazin-1-yl]pyridazine-3-carboxamide], the “ASMS ratio (%)” value by setting is: (n = 1) 0.0%; (n = 2) 0.0%.
Regarding `CCOc1cncc(-c2cc(CN3CCN(c4ccc(C(=O)N(CC)CC)nn4)CC3)cc(OC(F)(F)F)c2)c1` [B4J090-01, 6-[4-[[3-(5-Ethoxypyridin-3-yl)-5-(trifluoromethoxy)phenyl]methyl]piperazin-1-yl]-N,N-diethylpyridazine-3-carboxamide], under “AS-MS, mixture library, Bcl-2”, the “ASMS ratio (%) n = 1” value is given as 1.4% and the “ASMS ratio (%) n = 2” value is −1.5%.
In the case of `CCOc1cccc(-c2cc(CN3CCN(c4ccc(C(=O)NS(=O)(=O)C(C)(C)C)cc4)CC3)cc(C(F)(F)F)c2)c1` [B2L061-01, N-tert-Butylsulfonyl-4-[4-[[3-(3-ethoxyphenyl)-5-(trifluoromethyl)phenyl]methyl]piperazin-1-yl]benzamide], the “ASMS ratio (%)” value is, setting by setting: (n = 1) 4.6%; (n = 2) −11.1%.
For the molecule `CCOc1cccc(-c2ccc(CN3CCN(c4ccc(C(=O)N(CC)CC)cc4)CC3)cc2F)c1` [B4J051-01, 4-[4-[[4-(3-Ethoxyphenyl)-3-fluorophenyl]methyl]piperazin-1-yl]-N,N-diethylbenzamide], under setting [1], the “ASMS ratio (%) n = 1” value is −9.6% and the “ASMS ratio (%) n = 2” value is listed as −10.2%.
